PubChem BioAssay (NCI)
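Cells were grown in 96-well plates and exposed to each compound for 48 hours at five concentrations; endpoints were interpolated linearly between bracketing concentrations, or set to the highest concentration if not reached. TGI marks complete inhibition of growth.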

Key:
Test in all cases: inhibition of tumour cell growth, NCI panel, 48 h
[1] = tested on: MDA-MB-231 breast
[2] = tested on: U251 CNS
[3] = tested on: MCF7 breast
[4] = tested on: ACHN renal
[5] = tested on: SN12C renal
[6] = tested on: PC-3 prostate
[7] = tested on: HL-60(TB) leukemia
[8] = tested on: NCI-H23 lung
[9] = tested on: OVCAR-5 ovarian
[10] = tested on: DU-145 prostate
[11] = tested on: SNB-19 CNS
[12] = tested on: HCT-116 colon
[13] = tested on: SNB-75 CNS
[14] = tested on: HOP-62 NSCLC
[15] = tested on: NCI-H460 lung
[16] = tested on: LOX IMVI melanoma
[17] = tested on: SF-295 CNS
[18] = tested on: SF-268 CNS
[19] = tested on: IGROV1 ovarian
[20] = tested on: A498 renal
[21] = tested on: EKVX NSCLC
[22] = tested on: BT-549 breast
[23] = tested on: TK-10 renal
[24] = tested on: MALME-3M melanoma
[25] = tested on: HCT-15 colon
[26] = tested on: T-47D breast
[27] = tested on: HCC-2998 colon
[28] = tested on: SK-MEL-2 melanoma
[29] = tested on: M14 melanoma
[30] = tested on: A549 NSCLC
[31] = tested on: CCRF-CEM leukemia
[32] = tested on: OVCAR-8 ovarian
[33] = tested on: RPMI-8226 leukemia
[34] = tested on: RXF 393 renal
[35] = tested on: KM12 colon
[36] = tested on: SK-MEL-28 melanoma
[37] = tested on: OVCAR-4 ovarian
[38] = tested on: COLO 205 colon
[39] = tested on: MOLT-4 leukemia
[40] = tested on: SW-620 colon
[41] = tested on: 786-0 renal
[42] = tested on: MDA-N
[43] = tested on: HS 578T breast
[44] = tested on: SK-MEL-5 melanoma
[45] = tested on: SK-OV-3 ovarian
[46] = tested on: NCI/ADR-RES ovarian
[47] = tested on: UACC-257 melanoma
[48] = tested on: HT29 colon
[49] = tested on: CAKI-1 renal
[50] = tested on: OVCAR-3 ovarian
[51] = tested on: NCI-H226 lung
[52] = tested on: UO-31 renal
[53] = tested on: UACC-62 melanoma
[54] = tested on: NCI-H522 lung
[55] = tested on: SF-539 CNS
[56] = tested on: HOP-92 NSCLC
[57] = tested on: MDA-MB-435
[58] = tested on: SR leukemia
[59] = tested on: K-562 leukemia

COC(=O)[C@@H]1C[C@@]23CCCN4CC[C@@]5(c6cccc(OC)c6N(C=O)[C@]15CC2)[C@@H]43
TGI [1]: > 100 µM
TGI [2]: > 100 µM
TGI [3]: > 100 µM
TGI [4]: > 100 µM
TGI [5]: > 100 µM
TGI [6]: > 100 µM
TGI [7]: > 100 µM
TGI [8]: > 100 µM
TGI [9]: > 100 µM
TGI [10]: > 100 µM
TGI [11]: > 100 µM
TGI [12]: > 100 µM
TGI [13]: > 100 µM
TGI [14]: > 100 µM
TGI [15]: > 100 µM
TGI [16]: > 100 µM
TGI [17]: > 100 µM
TGI [18]: > 100 µM
TGI [19]: > 100 µM
TGI [20]: > 100 µM
TGI [21]: > 100 µM
TGI [22]: > 100 µM
TGI [23]: > 100 µM
TGI [24]: > 100 µM
TGI [25]: > 100 µM
TGI [26]: > 100 µM
TGI [27]: > 100 µM
TGI [28]: > 100 µM
TGI [29]: > 100 µM
TGI [30]: > 100 µM
TGI [31]: > 100 µM
TGI [32]: > 100 µM
TGI [33]: > 100 µM
TGI [34]: > 100 µM
TGI [35]: > 100 µM
TGI [36]: > 100 µM
TGI [37]: > 100 µM
TGI [38]: > 100 µM
TGI [39]: > 100 µM
TGI [40]: > 100 µM
TGI [41]: > 100 µM
TGI [42]: > 100 µM
TGI [43]: > 100 µM
TGI [44]: > 100 µM
TGI [45]: > 100 µM
TGI [46]: > 100 µM
TGI [47]: > 100 µM
TGI [48]: > 100 µM
TGI [49]: > 100 µM
TGI [50]: > 100 µM
TGI [51]: > 100 µM
TGI [52]: > 100 µM
TGI [53]: > 100 µM
TGI [54]: > 100 µM
TGI [55]: > 100 µM
TGI [56]: > 100 µM
TGI [57]: > 100 µM
TGI [58]: > 100 µM

COc1ccc2c(c1)[C@@H]1c3cc(OC)c(OC)cc3CCN1CCC2
TGI [1]: > 100 µM
TGI [2]: > 100 µM
TGI [3]: > 100 µM
TGI [4]: > 100 µM
TGI [5]: > 100 µM
TGI [6]: > 100 µM
TGI [7]: > 100 µM
TGI [8]: > 100 µM
TGI [9]: > 100 µM
TGI [10]: > 100 µM
TGI [11]: > 100 µM
TGI [12]: > 100 µM
TGI [13]: > 100 µM
TGI [14]: > 100 µM
TGI [15]: > 100 µM
TGI [16]: > 100 µM
TGI [17]: > 100 µM
TGI [18]: > 100 µM
TGI [19]: > 100 µM
TGI [20]: > 100 µM
TGI [21]: > 100 µM
TGI [22]: > 100 µM
TGI [23]: > 100 µM
TGI [24]: > 100 µM
TGI [25]: > 100 µM
TGI [26]: > 100 µM
TGI [27]: > 100 µM
TGI [28]: > 100 µM
TGI [29]: > 100 µM
TGI [30]: > 100 µM
TGI [31]: > 100 µM
TGI [32]: > 100 µM
TGI [33]: > 100 µM
TGI [34]: > 100 µM
TGI [35]: > 100 µM
TGI [36]: > 100 µM
TGI [37]: > 100 µM
TGI [38]: > 100 µM
TGI [39]: > 100 µM
TGI [40]: > 100 µM
TGI [41]: > 100 µM
TGI [42]: > 100 µM
TGI [43]: > 100 µM
TGI [44]: > 100 µM
TGI [46]: > 100 µM
TGI [47]: > 100 µM
TGI [48]: > 100 µM
TGI [49]: > 100 µM
TGI [50]: > 100 µM
TGI [59]: > 100 µM
TGI [52]: > 100 µM
TGI [53]: > 100 µM
TGI [54]: > 100 µM
TGI [55]: > 100 µM
TGI [56]: > 100 µM
TGI [57]: > 100 µM
TGI [58]: > 100 µM

CCC1CC(C)C(O)/C=C/C=C/CC(C)OC(=O)CC(O)C(OC)C1OC1OC(C)CC(O)(C(C)=O)C1O (configuration not stated)
TGI [1]: 67.9 µM
TGI [2]: > 100 µM
TGI [3]: > 100 µM
TGI [4]: > 100 µM
TGI [5]: > 100 µM
TGI [6]: > 100 µM
TGI [7]: 42.4 µM
TGI [8]: > 100 µM
TGI [9]: > 100 µM
TGI [10]: > 100 µM
TGI [11]: 79.5 µM
TGI [12]: > 100 µM
TGI [13]: > 100 µM
TGI [14]: > 100 µM
TGI [16]: > 100 µM
TGI [17]: > 100 µM
TGI [18]: > 100 µM
TGI [19]: > 100 µM
TGI [20]: > 100 µM
TGI [21]: > 100 µM
TGI [22]: > 100 µM
TGI [23]: > 100 µM
TGI [24]: > 100 µM
TGI [25]: > 100 µM
TGI [26]: > 100 µM
TGI [27]: 66.5 µM
TGI [28]: > 100 µM
TGI [29]: > 100 µM
TGI [30]: > 100 µM
TGI [31]: > 100 µM
TGI [32]: > 100 µM
TGI [33]: > 100 µM
TGI [34]: > 100 µM
TGI [35]: > 100 µM
TGI [36]: > 100 µM
TGI [37]: 42.8 µM
TGI [38]: > 100 µM
TGI [39]: > 100 µM
TGI [40]: > 100 µM
TGI [41]: > 100 µM
TGI [42]: > 100 µM
TGI [43]: > 100 µM
TGI [44]: > 100 µM
TGI [45]: > 100 µM
TGI [46]: > 100 µM
TGI [47]: > 100 µM
TGI [48]: > 100 µM
TGI [49]: > 100 µM
TGI [50]: > 100 µM
TGI [51]: > 100 µM
TGI [52]: > 100 µM
TGI [53]: > 100 µM
TGI [54]: 51.4 µM
TGI [55]: > 100 µM
TGI [56]: > 100 µM
TGI [57]: > 100 µM
TGI [58]: 59.8 µM
